Source: patent US11185531B2, “Arginine methyltransferase inhibitors and uses thereof” (Epizyme, Inc., priority 2013, dated 2021)

What follows are molecules tested against T1, Human CARM1 (PRMT4) (Homo sapiens, UniProt Q86X55) (assay: CARM1 Biochemical Assay (3H-SAM Flashplate, peptide substrate)). Conditions: 30 min preincubation.
T1 construct: Flag-CARM1-His was eluted with 200 ug/ml FLAG peptide in buffer A; made in house; host or cells: HEK 293F cells (BacMam baculovirus, pFastBacMam)
T1 sequence (Q86X55 1-585 isoform Q86X55-1): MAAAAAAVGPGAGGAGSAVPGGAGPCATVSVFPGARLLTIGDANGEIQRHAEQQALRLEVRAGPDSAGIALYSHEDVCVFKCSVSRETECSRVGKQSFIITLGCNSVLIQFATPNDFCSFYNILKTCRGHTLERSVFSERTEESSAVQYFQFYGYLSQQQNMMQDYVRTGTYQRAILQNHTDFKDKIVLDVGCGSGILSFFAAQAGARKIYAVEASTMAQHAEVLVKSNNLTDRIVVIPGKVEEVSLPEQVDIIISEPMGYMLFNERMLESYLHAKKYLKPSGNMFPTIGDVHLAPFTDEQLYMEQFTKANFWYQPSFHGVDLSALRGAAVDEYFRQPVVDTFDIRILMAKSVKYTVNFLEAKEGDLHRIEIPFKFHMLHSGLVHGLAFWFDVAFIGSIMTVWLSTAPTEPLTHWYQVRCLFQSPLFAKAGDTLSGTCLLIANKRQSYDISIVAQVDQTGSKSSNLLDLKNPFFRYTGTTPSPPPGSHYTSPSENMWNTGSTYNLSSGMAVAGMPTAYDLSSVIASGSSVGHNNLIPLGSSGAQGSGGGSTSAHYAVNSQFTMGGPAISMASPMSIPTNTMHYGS
From the text: Peptide representative of human histone H3 residues 16-30 was synthesized with an N-terminal linker-affinity tag motif and a C-terminal amide cap by 21st Century Biochemicals. The peptide was purified by high-performance liquid chromatography (HPLC) to greater than 95% purity and confirmed by liquid chromatography mass spectrometry (LC-MS). The sequence was Biot-Ahx-[…]-amide and contained a monomethylated arginine at position 26 (SEQ ID NO:14).
Human CARM1 (PRMT4) (NM_199141.1) transcript clone was amplified from an HEK 293 cDNA library, incorporating a flanking 5′ sequence encoding a FLAG tag ([…]) (SEQ ID NO:6) fused directly to Ala 2 of CARM1 and 3′ sequence encoding a hexa His sequence ([…]) (SEQ ID NO:15) fused directly to Ser 608. The gene sequence encoding isoform1 containing a deletion of amino acids 539-561 was amplified subsequently and subcloned into pFastBacMam (Viva Biotech).
Column was washed with 500 mM NaCl in buffer A and Flag-CARM1-His was eluted with 200 ug/ml FLAG peptide in buffer A. Pooled fractions were dialyzed in 20 mM Tris, 150 mM NaCl, 5% glycerol and 1 mM DTT, pH 7.8. The purity of recovered protein was 94.
General Procedure for CARM1 Enzyme Assays on Peptide Substrates.
The assays were all performed in a buffer consisting of 20 mM Bicine (pH=7.6), 1 mM TCEP, 0.005% BSG, and 0.002% Tween 20, prepared on the day of use. Compounds in 100% DMSO (1 ul) were spotted into a polypropylene 384-well V-bottom plates (Greiner) using a Platemate Plus outfitted with a 384-channel head (Thermo Scientific). DMSO (1 ul) was added to Columns 11, 12, 23, 24, rows A-H for the maximum signal control and 1 ul of SAH, a known product and inhibitor of CARM1, was added to columns 11, 12, 23, 24, rows I-P for the minimum signal control. A cocktail (40 ul) containing the CARM1 enzyme was added by Multidrop Combi (Thermo-Fisher). The compounds were allowed to incubate with CARM1 for 30 min at room temperature, then a cocktail (10 ul) containing ^3H-SAM and peptide was added to initiate the reaction (final volume=51 ul). The final concentrations of the components were as follows: CARM1 was 0.25 nM, ^3H-SAM was 30 nM, peptide was 250 nM, SAH in the minimum signal control wells was 1 mM, and the DMSO concentration was 2%. The assays were stopped by the addition of non-radiolabeled SAM (10 ul) to a final concentration of 300 uM, which dilutes the ^3H-SAM to a level where its incorporation into the peptide substrate is no longer detectable. 50 ul of the reaction in the 384-well polypropylene plate was then transferred to a 384-well Flashplate and the biotinylated peptides were allowed to bind to the streptavidin surface for at least 1 hour before being washed once with 0.1% Tween20 in a Biotek ELx405 plate washer. The plates were then read in a PerkinElmer TopCount plate reader to measure the quantity of ^3H-labeled peptide bound to the Flashplate surface, measured as disintegrations per minute (dpm) or alternatively, referred to as counts per minute (cpm).
Where dpm=disintegrations per minute, cmpd=signal in assay well, and min and max are the respective minimum and maximum signal controls.
Where top and bottom are the normally allowed to float, but may be fixed at 100 or 0 respectively in a 3-parameter fit. The Hill Coefficient normally allowed to float but may also be fixed at 1 in a 3-parameter fit. Y is the % inhibition and X is the compound concentration.

SMILES | IC50 [µM]
COc1cc(/C=C/c2n[nH]cc2CN(C)CCN)cc(OC)c1 [Compound 11] | < 0.1
CN(CCN)Cc1c[nH]nc1/C=C/c1cccc(F)c1 [Compound 20] | 0.101 to 1
CN(CCN)Cc1c[nH]nc1/C=C/c1cc(C(F)(F)F)cc(C(F)(F)F)c1 [Compound 14] | 0.101 to 1
CNCCN(C)Cc1c[nH]nc1C#Cc1ccc(F)cc1 [Compound 4] | 0.101 to 1
CN(CCN)Cc1c[nH]nc1/C=C/c1cccc(C(F)(F)F)c1 [Compound 16] | 0.101 to 1
CNCCN(C)Cc1c[nH]nc1C#Cc1cccc(OC)c1 [Compound 1] | 0.101 to 1
COc1cccc(/C=C/c2n[nH]cc2CN(C)CCN)c1 [Compound 17] | < 0.1
Cc1ccc(/C=C/c2n[nH]cc2CN(C)CCN)cc1 [Compound 8] | 0.101 to 1
CNCCN(C)Cc1c[nH]nc1/C=C/c1ccc(-c2ccccc2)cc1 [Compound 5] | 0.101 to 1
CN(CCN)Cc1c[nH]nc1C1CCCCC1 [Compound 22] | 3.01 to 10
CNCCN(C)Cc1c[nH]nc1C#Cc1ccccc1 [Compound 3] | 1.01 to 3
CN(CCN)Cc1c[nH]nc1/C=C/c1ccc(F)cc1F [Compound 13] | 0.101 to 1
CN(CCN)Cc1c[nH]nc1/C=C/c1cc(F)cc(F)c1 [Compound 15] | 0.101 to 1
COC/C=C/c1n[nH]cc1CN(C)CCN [Compound 19] | 3.01 to 10
CN(CCN)Cc1c[nH]nc1/C=C/c1ccc(C(F)(F)F)cc1 [Compound 18] | < 0.1
CNCCN(C)Cc1c[nH]nc1/C=C/c1ccc(C(F)(F)F)cc1 [Compound 6] | 0.101 to 1
CNCCN(C)Cc1c[nH]nc1/C=C/c1ccc(OC)cc1 [Compound 7] | < 0.1
CN(CCN)Cc1c[nH]nc1CCc1ccc(F)cc1 [Compound 23, N^1-((3-(4-fluorophenethyl)-1H-pyrazol-4-yl)methyl)-N^1-methylethane-1,2-diamine] | 1.01 to 3
CNCCN(C)Cc1c[nH]nc1C#Cc1ccc(C(C)(C)C)cc1 [Compound 2] | 0.101 to 1
